Usually IC50 stands for the midpoint of a concentration-inhibition curve.

In this test the target is human adenosine A2b receptor (Homo sapiens (Human), UniProt P29275). The test can be described thus: Cellular in vitro reporter gene test for A2b receptor activity (CHO-K1, CRE-luciferase, NECA stimulation). The class given is cell-based. The note with it: recombinant CHO-K1 cell line, CRE-luciferase reporter, antagonism of EC50 concentration of NECA; in some cases means of several determinations, rounded to two significant figures; read-out: A2b receptor IC50. In short, it runs like this: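 CHO-K1 cells with CRE-driven luciferase; antagonists co-incubated with NECA at its EC50, determined in a pre-experiment on each test day. Luciferase read by luminescence 3 h after NECA addition.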
Chain of human adenosine A2b receptor (P29275 whole entry): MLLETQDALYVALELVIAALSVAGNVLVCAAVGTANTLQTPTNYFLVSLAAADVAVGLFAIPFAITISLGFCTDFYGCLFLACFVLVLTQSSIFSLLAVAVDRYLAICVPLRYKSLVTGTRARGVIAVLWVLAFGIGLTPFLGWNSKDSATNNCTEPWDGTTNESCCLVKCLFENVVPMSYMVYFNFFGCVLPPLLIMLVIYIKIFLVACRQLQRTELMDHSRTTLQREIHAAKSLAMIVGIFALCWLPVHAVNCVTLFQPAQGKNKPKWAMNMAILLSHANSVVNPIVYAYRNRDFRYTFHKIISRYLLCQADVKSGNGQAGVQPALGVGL
(A reporter such as luciferase makes a cellular process visible.)
`COCCn1c(=O)n(CC(F)(F)F)c(=O)c2c(C)c(Cn3[nH]ccc3=O)sc21` [Example 283, 1-(2-Methoxyethyl)-5-methyl-6-[(5-oxo-2,5-dihydro-1H-pyrazol-1-yl)methyl]-3-(2,2,2-trifluoroethyl)thieno[2,3-d]pyrimidine-2,4(1H,3H)-dione]: the IC50 amounted to 79 nM.

As to `CCn1c(=O)c2c(C)c(Cn3cc[nH]c3=O)sc2n(CC2CCCO2)c1=O` (single isomer, unassigned) [Example 244, 3-Ethyl-5-methyl-6-[(2-oxo-2,3-dihydro-1H-imidazol-1-yl)methyl]-1-(tetrahydrofuran-2-ylmethyl)thieno[2,3-d]pyrimidine-2,4(1H,3H)-dione], the IC50 is 13 nM.

With `CCn1c(=O)c2c(C)c(CN3CCNC3=O)sc2n(CCCF)c1=O` [Example 51, 3-Ethyl-1-(3-fluoropropyl)-5-methyl-6-[(2-oxoimidazolidin-1-yl)methyl]thieno[2,3-d]pyrimidine-2,4(1H,3H)-dione], the IC50 amounted to 12 nM.

Regarding `CCn1c(=O)c2c(C)c(Cn3ncn(CC(O)CO)c3=O)sc2n(CCOC(F)(F)F)c1=O` (racemic) [Example 115, 6-{[4-(2,3-Dihydroxypropyl)-5-oxo-4,5-dihydro-1H-1,2,4-triazol-1-yl]methyl}-3-ethyl-5-methyl-1-[2-(trifluoromethoxy)ethyl]thieno[2,3-d]pyrimidine-2,4(1H,3H)-dione], the IC50 was found to be 31 nM.

In the case of `Cc1c(Cn2nc[nH]c2=O)sc2c1c(=O)n(CC(C)(C)C)c(=O)n2CCC(F)(F)F` [Example 427, 3-(2,2-Dimethylpropyl)-5-methyl-6-[(5-oxo-4,5-dihydro-1H-1,2,4-triazol-1-yl)methyl]-1-(3,3,3-trifluoropropyl)thieno[2,3-d]pyrimidine-2,4(1H,3H)-dione], the IC50 is 37 nM.

On to `COCCn1c(=O)c2c(C)c(CN3CCNC3=O)sc2n(CCC(F)(F)F)c1=O` [Example 229, 3-(2-Methoxyethyl)-5-methyl-6-[(2-oxoimidazolidin-1-yl)methyl]-1-(3,3,3-trifluoropropyl)thieno[2,3-d]pyrimidine-2,4(1H,3H)-dione], for which the IC50 is 4 nM.

In the case of `COC(=O)N=C1NCCN1Cc1sc2c(c1C)c(=O)n(C(C)C)c(=O)n2CC1CCCO1` (single isomer, unassigned) [Example 459, Methyl [1-{[3-isopropyl-5-methyl-2,4-dioxo-1-(tetrahydrofuran-2-ylmethyl)-1,2,3,4-tetrahydrothieno[2,3-d]pyrimidin-6-yl]methyl}imidazolidin-2-ylidene]carbamate], the IC50 worked out at 4.9 nM.

Take `COC(=O)N=C1NCCN1Cc1sc2c(c1C)c(=O)n(C(C)C(F)(F)F)c(=O)n2CCC(F)(F)F` (racemic) [Example 470, Methyl [1-{[5-methyl-2,4-dioxo-3-(1,1,1-trifluoropropan-2-yl)-1-(3,3,3-trifluoropropyl)-1,2,3,4-tetrahydrothieno[2,3-d]pyrimidin-6-yl]methyl}imidazolidin-2-ylidene]carbamate]: the IC50 stood at 5.1 nM.

In the case of `Cc1c(CN2CCNC2=O)sc2c1c(=O)n(C(C)C)c(=O)n2CC1CCO1` (racemic) [Example 183, 3-Isopropyl-5-methyl-1-(oxetan-2-ylmethyl)-6-[(2-oxoimidazolidin-1-yl)methyl]thieno[2,3-d]pyrimidine-2,4(1H,3H)-dione], the IC50 stood at 17 nM.

Regarding `[2H]C([2H])(c1sc2c(c1C)c(=O)n([C@@H](C)C(F)(F)F)c(=O)n2CCOC)N1CCNC1=O` [Example 502, 1-(2-Methoxyethyl)-5-methyl-6-[(2-oxoimidazolidin-1-yl)(dideutero)methyl]-3-[(2S)-1,1,1-trifluoropropan-2-yl]thieno[2,3-d]pyrimidine-2,4(1H,3H)-dione], the IC50 came to 18 nM.

On to `COCCn1c(=O)c2c(C)c(Cn3cc[nH]c3=O)sc2n(CC2CCCO2)c1=O` (single isomer, unassigned) [Example 348, 3-(2-Methoxyethyl)-5-methyl-6-[(2-oxo-2,3-dihydro-1H-imidazol-1-yl)methyl]-1-(tetrahydrofuran-2-ylmethyl)thieno[2,3-d]pyrimidine-2,4(1H,3H)-dione], for which the half-inhibitory concentration (IC50) was 48 nM.

For the compound `COCCn1c(=O)n(C(C)C(F)(F)F)c(=O)c2c(C)c(CN3CCNC(=O)C3=O)sc21` (racemic) [Example 491, 6-[(2,3-Dioxopiperazin-1-yl)methyl]-1-(2-methoxyethyl)-5-methyl-3-(1,1,1-trifluoropropan-2-yl)thieno[2,3-d]pyrimidine-2,4(1H,3H)-dione], the IC50 is 52 nM.

Take `Cc1c(CN2CCNC2=O)sc2c1c(=O)n(CC(F)(F)F)c(=O)n2CC1CCO1` (single isomer, unassigned) [Example 208, 5-Methyl-1-(oxetan-2-ylmethyl)-6-[(2-oxoimidazolidin-1-yl)methyl]-3-(2,2,2-trifluoroethyl)thieno[2,3-d]pyrimidine-2,4(1H,3H)-dione]: the IC50 turned out to be 8.9 nM.

For the compound `COCCn1c(=O)c2c(C)c(CN3CCNC(=O)C3=O)sc2n(CCCF)c1=O` [Example 277, 6-[(2,3-Dioxopiperazin-1-yl)methyl]-1-(3-fluoropropyl)-3-(2-methoxyethyl)-5-methylthieno[2,3-d]pyrimidine-2,4(1H,3H)-dione], the IC50 was 68 nM.

Regarding `C=CCn1cnn(Cc2sc3c(c2C)c(=O)n(CC)c(=O)n3CCCF)c1=O` [Example 350, 6-[(4-Allyl-5-oxo-4,5-dihydro-1H-1,2,4-triazol-1-yl)methyl]-3-ethyl-1-(3-fluoropropyl)-5-methylthieno[2,3-d]pyrimidine-2,4(1H,3H)-dione], the IC50 stood at 210 nM.

In the case of `COCCn1c(=O)n(CC2CCCO2)c(=O)c2c(C)c(CN3CCNC3=O)sc21` (single isomer, unassigned) [Example 334, 1-(2-Methoxyethyl)-5-methyl-6-[(2-oxoimidazolidin-1-yl)methyl]-3-(tetrahydrofuran-2-ylmethyl)thieno[2,3-d]pyrimidine-2,4(1H,3H)-dione], the IC50 was 120 nM.

Take `CCn1c(=O)c2c(C)c(CN3CCNC3=O)sc2n(CC2COC2)c1=O` [Example 72, 3-Ethyl-5-methyl-1-(oxetan-3-ylmethyl)-6-[(2-oxoimidazolidin-1-yl)methyl]thieno[2,3-d]pyrimidine-2,4(1H,3H)-dione]: the IC50 came out at 8.1 nM.

Take `COCCn1c(=O)n(CC(C)(C)OC)c(=O)c2c(C)c(CN3CCNC3=O)sc21` [Example 238, 1-(2-Methoxyethyl)-3-(2-methoxy-2-methylpropyl)-5-methyl-6-[(2-oxoimidazolidin-1-yl)methyl]thieno[2,3-d]pyrimidine-2,4(1H,3H)-dione]: the IC50 was found to be 99 nM.

Consider `CCn1c(=O)c2c(C)c(CN3CCNC3=O)sc2n(CCCOC)c1=O` [Example 311, 3-Ethyl-1-(3-methoxypropyl)-5-methyl-6-[(2-oxoimidazolidin-1-yl)methyl]thieno[2,3-d]pyrimidine-2,4(1H,3H)-dione], for which the IC50 amounted to 31 nM.

Take `CCC(C)n1c(=O)c2c(C)c(CN3CCNC3=O)sc2n(CCOC)c1=O` (racemic) [Example 190, 3-sec-Butyl-1-(2-methoxyethyl)-5-methyl-6-[(2-oxoimidazolidin-1-yl)methyl]thieno[2,3-d]pyrimidine-2,4(1H,3H)-dione]: the IC50 is 38 nM.

The record behind these values is patent US10428083B2, “Heterocyclylmethyl-thienouracile as antagonists of the adenosine-A2B-receptor” (BAYER PHARMA AKTIENGESELLSCHAFT, priority 2015, dated 2019).
